According to PMC8296708, “The pan HDAC inhibitor Givinostat improves muscle function and histological parameters in two Duchenne muscular dystrophy murine models expressing different haplotypes of the LTBP4 gene” (Skeletal Muscle, 2021):

What was measured:
[1] = tested on: plasma miRNA of mdx mice; assay: Whole-genome plasma miRNA expression profiling (small RNA sequencing) in mdx mice; assay type: in vivo, mouse (C57BL/10ScSn-Dmd^mdx/J); details: Givinostat 37.5 mg/kg vs vehicle
Description: Blood samples were taken from the retro-orbital plexus of mice maintained under isoflurane anesthesia. Blood was placed in tubes containing 50 μL (for 1 mL of total blood) of EDTA ([…]) and then it was centrifuged at 13,300 rpm at + 4 °C for 10 min. Plasma was separated (400–500 μL) and immediately frozen in dry ice and stored at − 80 °C until analysis.
Thirteen mouse plasma samples (naive wt, n = 3; naive mdx, n = 3; vehicle, n = 4; Givinostat 37.5 mg/kg, n = 3) were delivered to Biogazelle in dry ice.
RNA was isolated using the miRNeasy Serum/Plasma Kit (Qiagen) following the manufacturer’s instructions.
Libraries for small RNA sequencing were prepared using the NEBNext small RNA library prep kit (New England Biolabs) according to the manufacturer’s instructions. […] Finally, the resulting small RNA pools were concentrated via ethanol precipitation and quantified using the Qubit 2.0 fluorometer (Thermo Fisher Scientific) prior to sequencing with read length of 75 bp on a NextSeq 500 sequencer (Illumina).
Sequencing reads were filtered based on stringent read quality control. After adapter trimming with Trimmomatic, reads were collapsed and mapped to the reference genome (GRCm38) using Bowtie. Reads up to 25 nucleotides are mapped with no mismatches, while longer reads (mainly from RNA species other than miRNAs) are mapped allowing a maximum of 2 mismatches. […]

[2] = tested on: mdx mice; assay: Muscle fibrosis by Sirius Red staining in mdx mice; assay type: in vivo, mouse (C57BL/10ScSn-Dmd^mdx/J)
Excerpt: (§1) Tibialis anterior (TA), gastrocnemius (GAS), DIA, and heart were collected from mice maintained under isoflurane anesthesia and sacrificed by cervical dislocation. These muscles were collected from C57BL/10J wt and mdx (5 mice/group) at the end of treatments and from DBA/2J wt and D2.B10 mice (5 mice/group) at two different time points to be examined by a pathologist (for more details see Additional Table 1). Due to the results obtained by the functional tests, muscles from only some treatment groups were analyzed in both DMD models (see Additional Table 1). All the collected muscles were fixed in 10% buffered formalin solution (Bio-optica, Milan, Italy) at + 4 °C for at least 48 h. After fixation, muscular samples were transversely trimmed, caged, and paraffin embedded overnight with an Automated Vacuum Tissue Processor Floor (ETP, Histo-Line Laboratories) and included in paraffin blocks. Serial transverse cross-sections (4 μm thick) were cut with a microtome (Leica RM 2255), collected onto uncoated glass slides, and stained using a standard protocol for hematoxylin and eosin (Mayer hematoxylin & Aqueous G Eosin 1%, Bio-Optica) and Sirius Red staining (Direct Red 80, Sigma-Aldrich). For the image analysis and quantitation, hematoxylin and eosin- and Sirius Red-stained slides were examined with an Olympus BX51 light microscope. From each sample, 1 to 3 random microphotographs at the magnification of × 4 and × 10 (TA, GAS and heart) or × 20 (DIA) were collected using Image-Pro Plus system. The digital images were processed by a pathologist using ImageJ software (U.S. National Institutes of Health, Bethesda, MD, USA). To quantify CSA and centralized nuclei (%) on hematoxylin and eosin-stained sections, one hundred myofibers were manually measured for each muscle/mouse using a tablet pen (Wacom Intruos) and analyzed by the ImageJ software after a linear calibration of 150 μm. The fibrotic area, corresponding to the area stained in red, was compared to the total area of the tissue section, and the results were expressed as percentage fibrosis. The % of fibrosis of muscles in the different treatment groups was expressed by averaging the three values obtained from each muscle.

[3] = tested on: murine models of diastolic dysfunction; parameters: method as in PMID 29437146; details: drug admixed to the diet; cited from earlier work
[4] = tested on: mdx mice; assay: Centralized nuclei (%) in muscles of mdx mice; assay type: in vivo, mouse (C57BL/10ScSn-Dmd^mdx/J); details: T16
Excerpt: as §1

## CCN(CC)Cc1ccc2cc(COC(=O)Nc3ccc(C(=O)NO)cc3)ccc2c1 [Givinostat]
[1]; T16, significant upregulation
  miR-92b-3p in plasma, FC: 2.130
[1]; T16, significantly upregulated
  miR-449a-5p in plasma, FC: 4.388
[2]; 10 and 37.5 mg/kg, T16, vs vehicle
  Reduction of fibrosis in GAS: about 30%
[2]; T16, doses 1, 10, 37.5 mg/kg analyzed
  Effect on fibrosis in TA: observed only at the dose of 37.5 mg/kg
[2]; all 3 analyzed doses (1, 10, 37.5 mg/kg), T16
  Reduction of fibrosis in DIA: about 40%
[2]; all 3 doses analyzed, T16, vs vehicle
  Effect on fibrosis in heart: the effect was not significant
[3]
  Efficacy in two murine models of diastolic dysfunction with preserved ejection fraction: highly efficacious
[4]; 1 mg/kg
  Nuclear centralization in DIA: 57 ± 2.9%
  Nuclear centralization in GAS: 67.6 ± 2.4%
  Nuclear centralization in TA: 71 ± 1.6%
[4]; 10 mg/kg
  Nuclear centralization in DIA: 61.4 ± 3.5%
  Nuclear centralization in GAS: 58 ± 3%
  Nuclear centralization in TA: 73.2 ± 3.7%
[4]; 37.5 mg/kg
  Nuclear centralization in DIA: 41.4 ± 4.5%
  Nuclear centralization in GAS: 61.3 ± 3.8%
  Nuclear centralization in TA: 60.8 ± 2.5%
